Columns and labels:
FVIII-inhibited plasma = test: Thrombin generation assay (CAT) in FVIII-inhibited plasma; format: biochemical, human
Experimental: The procoagulant activity of the sulfated polysaccharides was assessed by the Thrombin Generation Assay (TGA). The influence of each sulfated polysaccharide on thrombin generation was measured in duplicate via CAT in a Fluoroskan Ascent® reader (Thermo Labsystems, Helsinki, Finland; filters 390 nm excitation and 460 nm emission) following the slow cleavage of the fluorogenic substrate Z-Gly-GIy-Arg-AMC (Hemker H C. Pathophysiol Haemost Thromb (2003) 33(4):15). To each well of a 96 well microplate (Immulon 2HB, clear U-bottom; Thermo Electron) 80 μL of pre-warmed (37° C.) goat anti FVIII antibody treated human normal plasma pool was added. For triggering thrombin generation by tissue factor, 104 of PPP reagent containing a certain amount of recombinant human tissue factor (rTF) and phospholipid vesicles composed of phosphatidylserine, phosphatidylcholine and phosphatidylethanolamine (final concentration of 4 μM) (Thrombinoscope BV, Maastricht, The Netherlands) was added. For studying the procoagulant activity of sulfated polymers a final TF concentration of 1 pM was used to provide FVIII and TFPI sensitivity of the test system. Just prior to putting the plate into the pre-warmed (37° C.) reader, 10 µL of test or reference sample or calibrator compound was added. Thrombin generation was started by dispensing 204 of FluCa reagent (Thrombinoscope BV, Maastricht, The Netherlands) containing fluorogenic substrate and Hepes buffered CaCl2 (100 mM) into each well and fluorescence intensity was recorded at 37° C.
The parameters of the resulting thrombin generation curves were calculated using the Thrombinoscope™ software (Thrombinoscope BV, Maastricht, The Netherlands) and thrombin calibrator to correct for inner filter and substrate consumption effects (Hemker H C, Pathophysiol Haemost Thromb (2003) 33(4):15). With the thrombin calibrator as a reference, the molar concentration of thrombin in the test wells was calculated by the software. The thrombin amounts at the peak and peak times of each thrombin generation curve (peak thrombin, nM) were plotted against sulfated polysaccharide concentrations resulting in the procoagulant profile of these compounds. The thrombin generation assay results are illustrated in the figures appended hereto. From these plots half maximal effective concentrations (EC50) values are determined using a sigmoidal curve fit. The EC50 represents the concentration at which the half maximal thrombin peak is reached.

full-length TFPI = target: T1, full-length TFPI (Homo sapiens, UniProt P10646); test: Dilute prothrombin time assay with added TFPI (TFPI-dPT); format: biochemical; conditions: normal human plasma
T1 construct: 0.5 μg/mL full-length TFPI (aa 1-276, constitutively produced by SKHep1); made in house; host or cells: SKHep1
T1 sequence (P10646 29-304): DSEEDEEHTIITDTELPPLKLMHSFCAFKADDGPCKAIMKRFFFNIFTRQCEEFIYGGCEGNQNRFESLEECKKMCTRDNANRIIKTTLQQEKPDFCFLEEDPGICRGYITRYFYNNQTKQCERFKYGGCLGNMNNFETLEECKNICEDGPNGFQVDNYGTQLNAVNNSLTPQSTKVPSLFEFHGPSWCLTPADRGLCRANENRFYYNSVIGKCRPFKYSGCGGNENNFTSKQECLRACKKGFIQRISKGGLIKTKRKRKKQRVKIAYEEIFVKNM
Experimental: A dilute prothrombin time assay with added TFPI (TFPI-dPT) was used to evaluate the TFPI-inhibiting effect of the different NASPs. Pooled normal human plasma (George King Biomedical, Overland Park, Kans.) was pre-incubated with 0.5 μg/mL full-length TFPI (aa 1-276, constitutively produced by SKHep1) and the respective NASP (0-5 μg/mL) for 15 min at RT. TF reagent TriniClot PT Excel S (Trinity Biotech, Wicklow, Ireland), diluted in Hepes-buffered saline 1:200 with 0.5% BSA was added to the plasma samples on an ACL Pro Elite hemostasis analyzer (Instrumentation Laboratory, Bedford, Mass.). Clotting was initiated with 25 mM CaCl2). The volume ratio of plasma:TF:CaCl2 was 1:1:1.
For data analysis, TFPI-dPT is plotted against the log concentration. Half maximal effective concentrations (EC50) values are determined using a sigmoidal curve fit.

[1] = test system: FVIII-inhibited guinea pigs; test: Ex-vivo whole blood TEG in FVIII-inhibited guinea pigs; design: species or system guinea pig
Experimental: Male Dunkin Hartley guinea pigs were intravenously injected with a goat anti-human FVIII inhibitor plasma at a dose of 42 BU/kg (1.9 mL/kg) 45 min before sampling. After 40 min, NASP was intravenously administered to the animals at 0.05, 0.15, 0.45 or 1.35 mg/kg (N=5 per group). 300 U/kg FEIBA (Baxter, BioScience, Austria) served as a positive control and saline as a vehicle control. Shortly after the injection, the Vena cava was punctured and blood was collected in the presence of citrate (ratio 1:9) for whole blood TEG analysis. Measurements were performed using a thromboelastography (TEG) hemostasis analyzer 5000 (Haemonetics Corp, USA) at 37° C. Every blood sample was prepared by pre-warming 204 of a 0.2 M CaCl2) solution in a TEG cuvette at 37° C. adding 340 μL of blood, mixing, and then immediately starting the TEG recording. The measurement proceeded for at least 120 min. The TEG parameters of clotting time (R-time), rapidity of clot strengthening (angle) and maximum clot firmness (MA) were recorded. The primary endpoint R-time was plotted and the median value of the different dosing groups compared with each other.

[2] = Pharmacokinetics after oral administration; format: in vivo, CD rats
Experimental: The preparations were either unfractionated (average MW of 24 kD) or fractionated by a filter method (average MW of 14 kD). The substances were prepared in a physiological saline solution without enhancer or with 0.8 wt % DOC or with 3 wt % chitosan+0.5 mg/mL bromelain. Each group dosed with NASP consisted of six rats. For each formulation, three additional rats served as vehicle controls. Blood samples were collected in the presence of citrate (ratio 1:9) before dosing and 15, 30 min, 1, 5, and 7 h after the dosing. Platelet-poor plasma was prepared by two centrifugation steps at 3000 rpm for 10 min.
The NASPs in the plasma samples were detected by a fluorescence assay that uses the dye HeparinRed that specifically binds to sulfated polysaccharides. Experiments were performed in a black half-area 96-well microtiter plate (Costar). For the S-6-CI standard curves (0.185 to 2.5 μg/mL), 10 μL of rat plasma was spiked with 5 μL of S-6-CI and mixed with 40 μL of human pooled plasma to minimize the matrix effect of individual animals. Then 5 μl HeparinRed dye was added and incubated in the dark at RT for 5 min. Plasma samples of the dosed animals were treated accordingly, however, the 5 μL S-6-CI were replaced by buffer. Fluorescent signals were detected with a Tecan Safire2™ microplate fluorescence reader (Ex/Em 580/620 nm) and the S-6-CI quantified based on the S-6-CI standard curve. […]

EC50 (FVIII-inhibited plasma; half maximal thrombin peak, 1 pM hTF, 4 μM PL): 0.07 µg/mL
time of highest plasma level after dosing ([2]; oral 50 mg/kg): 60 min
plasma levels at all time points ([2]; oral 50 mg/kg with chitosan+bromelain): < 300 ng/mL
Substance: sulfated 6-carboxy-icodextrin
procoagulant activity (in words) (FVIII-inhibited plasma): good procoagulant activity in CAT assays at very low concentrations
procoagulant at (concentration) (FVIII-inhibited plasma; 37° C., 1 pM hTF, 4 μM PL): about 0.01 μg/mL
reversal of the effect of rec. FL-TFPI (in words) (full-length TFPI): reverses the anticoagulant effect of exogenous full-length TFPI
median R-time (clotting time) ([1]; 0.15 and 0.45 mg/kg i.v., no clotting after 2 hours without treatment): 110 min
procoagulant effect, reduction in R-time (in words) ([1]; TEG five minutes after i.v. administration, NASP at 0.15 and 0.45 mg/kg): procoagulant effect superior to vehicle control

From US20200215099A1, “NON-ANTICOAGULANT SULFATED OR SULFONATED POLYSACCHARIDES” (Baxalta Incorporated, priority 2012, published 2020)
